Legend:
F508del CFTR [1] = target: T1, F508del CFTR (Homo sapiens, UniProt P13569, DEL508-508); assay: total level and trafficking (TrIdx) of F508del in F508del-CFBE41o− cells; assay type: cell-based
T1 construct: expressed in transfected cells
Excerpt: (§1) FIG. 2 illustrates an example process of variant spatial profiling (VSP) to generate a phenotype landscape 300 of FIG. 1. VSP uses a sparse collection of variants with known position and phenotypical traits. Each of the variants is positioned on the x-axis by their normalized position in the linear polypeptide sequence, where the full-length chain is assigned a value of 1.0, referred to as the variant sequence position (VarSeqP). The value of a phenotypic feature of each variant's (in this example the trafficking index, TrIdx) to the y-axis. The trafficking index (TrIdx) is the normalized ratio of the fraction of variants exported from the ER relative to the total variant level in the cell, where the value of the WT CFTR TrIdx is assigned a value of 1.0. In this example, the sequence position and TrIdx values are correlated to CFTR chloride conductance (CICon). The normalized CICon is assigned to the z-coordinate, where the value of the WT CFTR CICon is assigned a value of 1.0.
Referring now to FIG. 13, to address whether the correction of CICon in response to temperature is due to energetic features associated with global SCV relationships responsible for membrane trafficking of CFTR from the ER, we built the VarC map for the CFTR trafficking index (TrIdx) of variants following shift from 37° C. to 27° C. TrIdx quantifies the amount of CFTR in post-ER compartments relative to total CFTR in the cell as a measure of efficiency of ER export. The pairwise-residue based TS/TrIdx-VarC map (FIG. 13, upper left panel) and its corresponding TS/TrIdx-functional-response-structure (FIG. 13, upper second from left panel) reveal that only a limited subset of sequence residues contributes to TrIdx correction upon temperature shift. These include: 1) a sequence region containing F508 (FIG. 13, upper left panel, inset zoom); 2) a region in NBD1 domain including variants L558S, A559T, R560K/T and Y569D that are surrounding the CFTR di-acidic code (YKDAD (residues 563-567)) required for COPII dependent ER export (FIG. 13 upper left panel, inset zoom); 3) a sequence region in ICL4 that is reported by CF variants L1065P and L1077P (13) (FIG. 13, upper left panel, inset zoom). Even though separated in primary sequence, these responding regions cluster together in structure (FIG. 13, upper second from left panel). Overlap of MDC maps and corresponding MDC structures between TS/CICon and TS/TrIdx identifies a common energetic sensitive core (FIG. 13, right side, red) responding to temperature shift for both TrIdx and CICon function. This SCV based energetic sensitive core contains the F508-L1065 covariant link that bridges NBD1 (F508) and ICL4 (L1065) (FIG. 13, right panel, inset zoom, red), mechanistically explaining the previous observation that the NBD1-ICL4 interaction is crippled by F508del.
Consistent with previous results, using F508del-CFBE41o− cells, a bronchial epithelial cell line stably expressing the F508Del CFTR transgene, we found ELEXA alone can increase both the total level and the trafficking efficacy of F508del.
To test whether we can add value to the pairwise-residue networks targeted by TRIKA to improve TRIKA benefit for CF by restoring the lost energetics of the fold in response to F508del affecting the function of di-acidic exit code, we measured the impact of ELEXA and TRIKA impact on F508del at 27° C.

F508del CFTR [2] = target: T1, F508del CFTR; assay: steady-state CICon at the cell surface of WT and F508del; assay type: cell-based; conditions: F508del relative to WT
Excerpt: as §1
To assess how TrIdx is coupled to CICon at the cell surface in response to ELEXA or TRIKA, we assessed the steady-state CICon at the cell surface of WT and F508del. […] To understand the impact of ELEXA and TRIKA on the SCV relationships spanning the entire CFTR polypeptide, we measured the CICon responses for 64 CF variants. […]

[3] = F508del at 27° C. compared to 37° C.
[4] = F508del-CFBE41o− cells, compound alone

T1 sequence (P13569 with tags, fused parts or gaps DEL508-508): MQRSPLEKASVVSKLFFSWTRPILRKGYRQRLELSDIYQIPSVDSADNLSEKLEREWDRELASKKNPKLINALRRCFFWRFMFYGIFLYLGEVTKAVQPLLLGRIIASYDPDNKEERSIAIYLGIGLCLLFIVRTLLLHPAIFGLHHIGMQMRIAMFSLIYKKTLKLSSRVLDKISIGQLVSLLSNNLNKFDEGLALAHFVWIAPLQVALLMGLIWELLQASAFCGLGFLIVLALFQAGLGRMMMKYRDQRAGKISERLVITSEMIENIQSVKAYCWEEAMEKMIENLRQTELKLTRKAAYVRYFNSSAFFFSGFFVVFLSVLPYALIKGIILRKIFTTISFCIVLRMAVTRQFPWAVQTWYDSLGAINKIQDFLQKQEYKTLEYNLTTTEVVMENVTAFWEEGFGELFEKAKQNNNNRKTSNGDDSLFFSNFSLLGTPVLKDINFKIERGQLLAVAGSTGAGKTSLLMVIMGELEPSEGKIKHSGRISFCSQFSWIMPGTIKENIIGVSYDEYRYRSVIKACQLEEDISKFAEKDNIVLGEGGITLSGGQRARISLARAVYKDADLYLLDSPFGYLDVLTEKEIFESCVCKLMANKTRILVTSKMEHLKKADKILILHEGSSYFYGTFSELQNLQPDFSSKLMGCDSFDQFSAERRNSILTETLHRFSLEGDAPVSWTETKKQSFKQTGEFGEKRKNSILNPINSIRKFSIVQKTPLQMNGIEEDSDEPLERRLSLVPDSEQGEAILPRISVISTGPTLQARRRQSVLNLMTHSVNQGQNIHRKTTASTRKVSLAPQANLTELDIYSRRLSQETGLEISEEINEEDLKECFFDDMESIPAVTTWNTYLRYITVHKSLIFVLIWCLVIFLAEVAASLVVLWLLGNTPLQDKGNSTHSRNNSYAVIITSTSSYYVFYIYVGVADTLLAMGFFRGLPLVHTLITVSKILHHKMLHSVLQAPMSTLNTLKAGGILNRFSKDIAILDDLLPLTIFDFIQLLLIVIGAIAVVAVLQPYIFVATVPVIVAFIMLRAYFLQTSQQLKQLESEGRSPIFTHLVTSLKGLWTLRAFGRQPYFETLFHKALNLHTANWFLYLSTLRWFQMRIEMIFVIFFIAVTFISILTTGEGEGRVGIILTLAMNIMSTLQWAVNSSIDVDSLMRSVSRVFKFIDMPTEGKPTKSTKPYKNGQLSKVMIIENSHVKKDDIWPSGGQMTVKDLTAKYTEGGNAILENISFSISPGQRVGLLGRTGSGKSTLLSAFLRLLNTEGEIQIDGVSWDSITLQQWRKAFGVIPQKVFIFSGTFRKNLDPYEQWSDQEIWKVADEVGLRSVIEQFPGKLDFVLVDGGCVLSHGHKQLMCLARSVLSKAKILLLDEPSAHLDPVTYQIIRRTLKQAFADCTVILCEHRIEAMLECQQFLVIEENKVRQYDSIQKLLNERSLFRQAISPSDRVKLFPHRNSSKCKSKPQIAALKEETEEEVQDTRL

| SMILES | level of post-ER band C (F508del CFTR [1]; [3]) | total CFTR (F508del CFTR [1]; [3]) | trafficking efficiency (band C relative to total) (F508del CFTR [1]; [3]) | total level of F508del (F508del CFTR [1]; [4]) | trafficking efficacy of F508del (F508del CFTR [1]; [4]) | CICon function for F508del (F508del CFTR [2]) | impact on TrIdx (F508del CFTR [1]; F508del-CFBE41o− cells, IVA added to ELEXA) |
| --- | --- | --- | --- | --- | --- | --- | --- |
| Cc1nn(C)cc1S(=O)(=O)NC(=O)c1ccc(-n2ccc(OCC(C)(C)C(F)(F)F)n2)nc1N1C[C@@H](C)CC1(C)C [ELEXA, Elexacaftor] | dramatic improvement | dramatic improvement | dramatic improvement | can increase | can increase | ~20 % of WT | – |
| CC(C)(C)c1cc(C(C)(C)C)c(NC(=O)c2c[nH]c3ccccc3c2=O)cc1O [IVA, Ivacaftor] | – | – | – | – | – | – | no additional impact |

Reference: patent US20240404621A1, “THERAPEUTIC DEVELOPMENT PLATFORM COMPRISING VARIANT CAPTURE MAPS AND OTHER VISUALIZATIONS” (The Scripps Research Institute, priority 2021, published 2024)
